These are literature values, as cited in publication PMC13291975, “Brighter NIR Bioluminescence System for Mammalian Cell Bioimaging Based on Engineered Railroadworm Luciferase and 6′-Aminoluciferin Analogues” (Chemical & Biomedical Imaging, 2026).

This series concerns the target T1, Phrixotrix hirtus railroadworm red-emitting luciferase (PxRE; RE-WT) (Phrixothrix hirtus, UniProt Q9U4U7).
T1 construct: N-terminal His-tag, pCold vector, expressed in E. coli BL21-DE3, Ni-agarose purified
Put plainly: bioluminescence peak intensity, Lineweaver-Burk. The class given is biochemical. To be noted: read-out: K M LH2; ATP/MgSO4, 0.1 M Tris-HCl pH 8.0; kcat in relative luminometer counts; error not given, value possibly from the authors' earlier work; the text says 'Previously, we showed'. From the text: bioluminescence peak intensity, Lineweaver-Burk on Phrixotrix hirtus railroadworm red-emitting luciferase (PxRE; RE-WT)

T1 sequence (Q9U4U7 entry or part of it): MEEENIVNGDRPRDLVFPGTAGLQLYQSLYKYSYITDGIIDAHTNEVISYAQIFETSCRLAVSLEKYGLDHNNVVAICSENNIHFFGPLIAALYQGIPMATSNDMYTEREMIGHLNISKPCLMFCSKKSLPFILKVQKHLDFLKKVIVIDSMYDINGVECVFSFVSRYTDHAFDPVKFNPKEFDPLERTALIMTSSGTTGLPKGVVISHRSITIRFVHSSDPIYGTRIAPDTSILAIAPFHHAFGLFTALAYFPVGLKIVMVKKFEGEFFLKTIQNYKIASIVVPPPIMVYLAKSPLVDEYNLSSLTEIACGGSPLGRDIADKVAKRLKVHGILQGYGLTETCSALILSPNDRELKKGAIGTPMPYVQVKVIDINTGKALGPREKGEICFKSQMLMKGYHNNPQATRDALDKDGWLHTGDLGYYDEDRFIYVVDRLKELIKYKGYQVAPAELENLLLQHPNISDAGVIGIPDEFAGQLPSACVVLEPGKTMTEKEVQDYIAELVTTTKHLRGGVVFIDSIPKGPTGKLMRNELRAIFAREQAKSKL

With `O=C(O)[C@H]1CSC(c2nc3ccc(O)cc3s2)=N1` [LH2, D-luciferin], the Km was 7 µM.
